The data set in a line: gradient 5% acetonitrile 3 min, to 50% in 2 min, to 85% in 15 min, held 3 min, 100 µL/min. Conditions: column: Zorbax Extend-C18 2.1 x 50 mm; eluents: water / acetonitrile, 0.1% formic acid. In outline:
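Retention times of pure standards were taken from adduct peaks that were selected by computer and manually inspected. Over 3 months, mixtures of ~100 molecules were run by HPLC–quadrupole time-of-flight mass spectrometry in positive and negative ionization mode. The Zorbax Extend-C18 column (2.1 × 50 mm, 1.8 μm) ran at 100 μL/min in water and acetonitrile, each containing 0.1% formic acid, with 40 μL dead volume and 900 μL dwell volume.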
Consider `CCCCn1c(=O)c2c(nc3n2CCCCN3c2ccc(OCC)cc2)n(C)c1=O`, for which the RP-LC retention time amounted to 1050 s.
Regarding `O=S(=O)(c1ccc(Cl)cc1)c1ccc(N2CCN(c3ccccn3)CC2)nn1`, the RP-LC retention time turned out to be 651 s.
`CCOc1nc2ccccc2nc1N1CCCC(C(=O)NCc2cccc(C)c2)C1` (stereo not given) gave an RP-LC retention time of 1170 s.
The same measure for `CCN(CC)S(=O)(=O)c1ccc2c(c1)CC(C(=O)N1CCCCC1)N2C(C)=O` (stereo not given): 804 s; for `O=C(Cn1cccc(-c2nc(-c3ccc(Br)cc3)no2)c1=O)NCCc1ccccc1`: 1060 s; for `Cn1cc(CCN2CCC(C(=O)NCc3ccccc3F)CC2)c2cccnc21`: 595 s.
The same measure for `COc1cc(NC(=O)Cn2nc(N3CCCC(C)C3)c3ccccc3c2=O)cc(OC)c1` (stereo not given): 1100 s; for `CCOC(=O)C1CCN(C(=O)Cn2c3ccccc3c3cnn(C)c(=O)c32)CC1`: 775 s.
`O=C(Cn1cccc1-c1nnc(-c2ccccc2)o1)N1CCc2ccccc21` had an RP-LC retention time of 1020 s.
The same measure for `Cc1nn(C2CCS(=O)(=O)C2)c2nc(-c3ccc(F)cc3)cc(C(=O)N3CCCC3)c12` (stereo not given): 779 s.
The same measure for `Cc1cc(C(=O)NCCc2c[nH]c3ccccc23)c2c(=O)n(C)c(=O)n(C)c2n1`: 742 s; for `O=C(Nc1c(-c2ccccc2)nc2ccccn12)c1ccc(Cl)c([N+](=O)[O-])c1`: 696 s.
The value for `COc1ccc2c(c1)C1(CCN(C(=O)c3ccc(C#N)cc3)C1)C(=O)N2C` (stereo not given) was 735 s.
The compound `O=C(C1CCOC1)N1CCC(c2nncn2Cc2ccccc2)CC1` (stereo not given) displayed an RP-LC retention time of 541 s.
In the case of `Cn1cc(CN2CCC(C(=O)NCCN3CCOCC3)CC2)c2cc(Cl)ccc21`, the RP-LC retention time was determined as 568 s.
The same measure for `CN1CCn2ccnc2C12CCN(S(=O)(=O)c1ccccc1C(F)(F)F)CC2`: 654 s.
The same measure for `CCN1C(=O)c2ccccc2Oc2ccc(C(=O)NCCc3cccs3)cc21`: 944 s; for `COC(=O)Cn1c(=O)c2c(nc3n2CCCN3c2ccc(Cl)cc2)n(C)c1=O`: 868 s; for `Cc1nc(N)n(CC(=O)N2CCc3ccccc32)c(=O)c1C`: 616 s.
Consider `COCCNC(=O)c1nccnc1NC(=O)c1ccc(C)cc1`, for which the RP-LC retention time stood at 759 s.
The value for `CCOc1ccc(-c2nc(Cc3noc(-c4ccccc4)n3)c(C)o2)cc1` was 1200 s; that for `CCc1ccc(Oc2cc(N3CCC(C(=O)NCCC(C)C)CC3)ncn2)cc1` was 1040 s; that for `Cc1cc(S(=O)(=O)N2CCC(C(N)=O)CC2)ccc1F` was 649 s.
`CCNC(=O)c1nc(C(=O)NCc2ccc(C)cc2)cs1` showed an RP-LC retention time of 811 s.
`Cn1cc(-c2ccc3nnc(Sc4ccc5ncccc5c4)n3n2)cn1` had an RP-LC retention time of 661 s.
In turn, `CCn1c(=O)c(N2CCN(C(=O)Nc3ccc(Br)cc3F)CC2)nc2cccnc21` came in with an RP-LC retention time of 1000 s.
Consider `O=C(NC1CC1)c1nc(C(=O)N2CCN(c3ccc(F)cc3)CC2)cs1`, for which the RP-LC retention time was found to be 788 s.
The value for `O=C(NCCCOc1cccc2cccnc12)c1cc(-c2ccccc2)on1` was 617 s.
As for `COc1ccc(N2CCN(C(=O)c3cc4cc5cc(OC)ccc5nc4o3)CC2)cc1`, the RP-LC retention time came out at 829 s.
Take `CCCS(=O)(=O)NCc1ccc2c(c1)CCN2C(=O)c1ccc(Cl)cc1`: the RP-LC retention time came out at 918 s.
`COc1ccc(-c2noc(C3CCCN3C(=O)CNC(=O)c3cccs3)n2)cc1` (stereo not given) gave an RP-LC retention time of 788 s.
In turn, `Cc1c2cnn(-c3ccccc3)c(=O)c2c(C)n1C(C)C(=O)NCCCN1CCN(C)CC1` (stereo not given) displayed an RP-LC retention time of 581 s.
The same measure for `Cc1cccc(S(=O)(=O)N2CCCN(c3ccc(=O)n(-c4ccccc4)n3)CC2)c1`: 866 s; for `COc1ccc(C(=O)CC2(O)C(=O)Nc3ccc(C)cc32)cc1OC` (stereo not given): 670 s.
The value for `O=C(NCc1nc(-c2cccc(-c3ccn[nH]3)c2)no1)c1ccccc1` was 741 s; that for `CCCCN(C(=O)c1noc2c1CC(C)CC2)C1CCN(C(C)=O)CC1` (stereo not given) was 895 s.
The value for `COc1ccc(CNc2c(-c3nc(C4CC4)no3)cnc3nc(C)ccc23)cc1OC` was 683 s; that for `O=C(Nc1nnc(-c2cc(Cl)sc2Cl)o1)c1cccc(C(F)(F)F)c1` was 1010 s; that for `CC(C)CN1C(=O)CCc2cc(NS(=O)(=O)c3ccccc3)ccc21` was 844 s.
Take `CCc1noc(-c2ccnc(-n3cnc(C(=O)NC4CCCCC4)c3)c2)n1`: the RP-LC retention time came out at 915 s.
Consider `Cc1ccc(C)c(Sc2ccc(N3CCC(C(=O)NCC(C)c4ccccc4)CC3)nn2)c1` (stereo not given), for which the RP-LC retention time came to 938 s.
Compound `CCN1CCN(c2ccc(-c3nc(-c4ccc(C)cc4)no3)cn2)CC1` registered an RP-LC retention time of 715 s.
The value for `O=C1NCCCn2cc(S(=O)(=O)N3CCCCCC3)cc21` was 661 s; that for `COCCCNC(=O)c1ccc2c(c1)nc1n2CCN(C2CCCCC2)C1=O` was 1240 s.
In turn, `CC1CCN(C(=O)C2CCc3sc(C(=O)N(C)C)cc3C2)CC1` (stereo not given) showed an RP-LC retention time of 717 s.
`CC(C)c1nc(-n2cccc2)sc1C(=O)NCc1ccccc1` returned an RP-LC retention time of 1140 s.
On to `Cc1cc(OCC(=O)NCc2cccs2)nc(-c2ccc(Cl)cc2)n1`, for which the RP-LC retention time amounted to 1050 s.
Regarding `COc1ccc(C2c3sc(=O)[nH]c3SC3C(=O)N(CC(=O)O)C(=O)C32)cc1` (stereo not given), the RP-LC retention time was determined as 632 s.
Take `O=C(Cc1ccc(F)cc1)N(CC1CCOC1)C1CC1` (stereo not given): the RP-LC retention time was found to be 794 s.
`Cc1ccc(S(=O)(=O)N2CC(=O)N(c3ccc(F)cc3)C(C)(C(=O)NC3CCCC3)C2)cc1` (stereo not given) showed an RP-LC retention time of 956 s.
In turn, `Cc1nc(-c2cccnc2)nc2c1CCC(=O)N2CC1CCCCC1` returned an RP-LC retention time of 963 s.
The same measure for `Cn1nc(-c2nnc(-c3ccc(F)cc3)o2)c2c1CCN(S(=O)(=O)c1cccc(C#N)c1)C2`: 891 s; for `Cc1ccc(-n2c(=O)c3c(cc(C)n3C)n(CC(=O)Nc3cc(C)cc(C)c3)c2=O)cc1`: 844 s.
The same measure for `Fc1ccccc1-c1nc(-c2ccc3c(c2)ncn3CCN2CCOCC2)no1`: 627 s; for `CCn1cc(CC(=O)Nc2ccc(OC)c(OC)c2)c2cccnc21`: 664 s; for `CC(C)Oc1ccc(CNC(=O)C2CCCN(c3ccc(=O)n(-c4ccc(F)cc4)n3)C2)cc1` (stereo not given): 900 s.
The compound `O=C(c1ccc(N2C(=O)CCS2(=O)=O)cc1)N1CCN(c2ccccn2)CC1` had an RP-LC retention time of 548 s.
`N#Cc1ccc(C(=O)Nc2ccc(-c3nnc4n3CCCC4)cc2)cc1` displayed an RP-LC retention time of 643 s.
`CCc1c(C2CCN(C(=O)c3ccn(CC)n3)CC2)noc1N` registered an RP-LC retention time of 644 s.
`CNS(=O)(=O)c1cc(-c2nnc(-c3ccc(OC)c(OC)c3)o2)ccc1C` came in with an RP-LC retention time of 779 s.
The same measure for `Cc1ccc(NC(=O)Cn2nc3nc(N4CCSCC4)ccn3c2=O)cc1C`: 754 s; for `COCCOC1CCN(S(=O)(=O)Cc2ccccc2F)CC1`: 809 s; for `COc1ccc2cc(C(=O)N3CCCC(c4nnc(-c5ccccc5F)s4)C3)[nH]c2c1` (stereo not given): 918 s.
The same measure for `O=C(c1cnccn1)N1CCC(c2noc(C3CC3)n2)C1` (stereo not given): 646 s.
The same measure for `CCn1cc(-c2nc(CC(=O)Nc3ccc(C)cc3F)cs2)c2cccnc21`: 865 s.
`COCc1c(C(=O)O)nnn1-c1ccc(C)c(C)c1`: the RP-LC retention time turned out to be 757 s.
The same measure for `CCC(=O)NC(C)c1nc(-c2ccc(C)cc2)no1` (stereo not given): 777 s; for `Cc1cc(F)ccc1NC(=O)c1cc(C(C)C)n2nccc2n1`: 1140 s.
The value for `COc1ccc(OC)c(NC(=O)c2csc(-c3ccc(C)n3C)n2)c1` was 1230 s; that for `COc1ccc(Cl)cc1NS(=O)(=O)c1cn(CC(C)C)c2ncccc12` was 765 s; that for `CCc1cccc(C)c1N(C(=O)CSCc1nc2ccccc2[nH]1)C(C)COC` (stereo not given) was 635 s.
In turn, `CCOc1ccccc1NC(=O)C1CCCN(c2cnc3nccnc3c2)C1` (stereo not given) returned an RP-LC retention time of 664 s.
The value for `COc1ccc(CN2C(=O)COC[C@H]2C(=O)NCc2ccc(Cl)cc2)c(OC)c1` was 805 s; that for `Cc1ccccc1Nc1c(-c2ccc(N3CCOCC3)cc2)nc2ccccn12` was 712 s.
The value for `Cn1nc(-c2nc(C3CC3)no2)c2c1CCN(C(=O)Nc1ccccc1)C2` was 809 s.
`Cn1c(=O)c(N2CCC(NC(=O)NCc3ccc(F)cc3)CC2)nc2cccnc21`: the RP-LC retention time came to 771 s.
The same measure for `CCc1cc(C(=O)Nc2ccccc2F)nc2ccnn12`: 1060 s; for `CCOC(=O)c1oc2ccc(S(=O)(=O)NCC3Cn4cccc4C(=O)N3C)cc2c1C` (stereo not given): 810 s.
In turn, `CC1(C(=O)NCc2ccccc2)CCCN(C(=O)Nc2cccc(Br)c2)C1` (stereo not given) returned an RP-LC retention time of 983 s.
The value for `CCn1cc(-c2nc(CC(=O)Nc3ccc(F)c(F)c3)cs2)c2cccnc21` was 961 s.

The record behind these values is the METLIN SMRT retention time set (Domingo-Almenara et al. 2019).
